{
  "source": "patent US20150299219A1",
  "about": "“BICYCLIC PYRAZOLONE COMPOUNDS AND METHODS OF USE” (Calitor Sciences, LLC, priority 2014, published 2015)",
  "key": {"[1]": {"assay": "Pharmacokinetic profiles in rats", "assay_type": "in vivo", "details": "rat, plasma", "description": "The LC/MS/MS system used in the analysis consists of an Agilent 1200 Series vacuum degasser, binary pump, well-plate autosampler, thermostatted column compartment, the Agilent G6430 Triple Quadrupole Mass Spectrometer with an electrosprayionization (ESI) source. Quantitative analysis was carried out using MRM mode. The parameters for MRM transitions are in the Table A.\nAn Agilent XDB-C18, 2.1×30 mm, 3.5 μM column was used for the analysis. 5 μL of the samples were injected. Analysis condition: The mobile phase was 0.1% formic acid in water (A) and 0.1% formic acid in methanol (B). The flow rate was 0.4 mL/min. And the gradient of Mobile phase was in the Table B.\nAlternatively, an Agilent 6330 series LC/MS/MS spectrometer equipped with G1312A binary pumps, a G1367A autosampler and a G1314C UV detector were used in the analysis. An ESI source was used on the LC/MS/MS spectrometer. The analysis was done in positive ion mode as appropriate and the MRM transition for each analyte was optimized using standard solution. A Capcell MP-C18 100×4.6 mm I.D., […] column (Phenomenex, Torrance, Calif., USA) was used during the analysis. The mobile phase was 5 mM ammonia acetate, 0.1% MeOH in water (A): 5 mM ammonia acetate, 0.1% MeOH in acetonitrile (B) (70/30, v/v). The flow rate was 0.6 mL/min. Column was maintained at ambient temperature. 20 μL of the samples were injected.\nThe compounds disclosed herein are assessed in pharmacokinetic studies in mice, rats, dogs or monkeys. The compounds are administered as a water solution, 2% HPMC+1% TWEEN®80 in water solution, 5% DMSO+5% solutol in saline, 4% MC suspension or capsule. For the intravenous administration, the animals are generally given at 1 or 2 mg/kg dose. For the oral (p.o.) dosing, mice and rats are generally given 5 or 10 mg/kg dose, and dogs and monkeys are generally given 10 mg/kg dose. The blood samples (0.3 mL) are drawn at 0.25, 0.5, 1.0, 2.0, 3.0, 4.0, 6.0, 8.0, 12 and 24 h time points or 0.083, 0.25, 0.5, 1.0, 2.0, 4.0, 6.0, 8.0 and 24 h time points and centrifuged at 3,000 or 4000 rpm for 2 to 10 min. The plasma solutions are collected, and stored at −20° C. or −70° C. until analyzed by LC/MS/MS as described above."}, "[2]": {"assay": "Compound stability in human liver microsomes", "assay_type": "in vitro ADME", "description": "(§1) Human or rat liver microsomes incubations were conducted in duplicate in polypropylene tubes. The typical incubation mixtures consisted of human or rat liver microsomes (0.5 mg protein/mL), compounds of interest (5 μM) and NADPH (1.0 mM) in a total volume of 200 μL potassium phosphate buffer (PBS, 100 mM, pH 7.4). Compounds were dissolved in DMSO and diluted with PBS such that the final concentration of DMSO was 0.05%. The enzymatic reactions were commenced with the addition of protein after a 3-min preincubation and incubated in a water bath open to the air at 37° C. Reactions were terminated at various time points (0, 5, 10, 15, 30, 60 min) by adding equal volume of ice-cold acetonitrile. The samples were stored at −80° C. until LC/MS/MS assays.\n(§2) The concentrations of compounds in the incubation mixtures of human or rat liver microsomes were determined by a LC/MS/MS method. The ranges of the linearity in the concentration range were determined for each tested compounds.\n(§3) A parallel incubation was performed using denatured microsomes as the negative control, and reactions were terminated at various time points (0, 15, 60 min) after incubation at 37° C.\n(§4) Dextromethorphan (70 μM) was selected as the positive control, and reactions were terminated at various time points (0, 5, 10, 15, 30, 60 min) after incubation at 37° C. Both positive and negative control samples were included in each assay to ensure the integrity of the microsomal incubation system.\n(§5) Alternatively, the stability of some of the compounds disclosed herein in human (or rat) liver microsomes were also conducted in the following protocol. The incubations were conducted in duplicate in polypropylene tubes. The typical incubation mixtures consisted of liver microsomes (final concentration: 0.5 mg protein/mL), compounds (final concentration: 1.5 μM) in a total volume of 30 μL K-buffer (contain 1.0 mM EDTA, 100 mM, pH7.4). Compounds were dissolved in DMSO and diluted with K-buffer such that the final concentration of DMSO was 0.2%. The enzymatic reactions were commenced with the addition of 15 μL of NADPH (final concentration: 2 mM) after 10 min preincubation and incubated in a 37° C. incubator. Reactions were terminated at various time points (0, 15, 30, 60 min) by adding 135 μL acetonitrile (contain IS). Protein is removed by centrifugation with 4000 rpm, 10 min. Supernatant was collected for LCMS/MS analysis\n(§6) In the above protocol, ketanserin (1 μM) was selected as the positive control, and reactions were terminated at various time points (0, 15, 30, 60 min) after incubation at 37° C. The positive control sample was included in each assay to ensure the integrity of the microsomal incubation system.\n(§7) The concentrations of compounds in human or rat liver microsome incubations were plotted as a percentage of the relevant zero time point control for each reaction. The in vivo CLint were extrapolated (ref: Naritomi, Y.; Terashita, S.; Kimura, S.; Suzuki, A.; Kagayama, A.; and Sugiyama, Y.; Prediction of human hepatic clearance from in vivo animal experiments and in vitro metabolic studies with liver microsomes from animals and humans. Drug Metab. Dispos., 2001, 29: 1316-1324)."}, "[3]": {"assay": "Compound stability in rat liver microsomes", "assay_type": "in vitro ADME", "description": "as §1, §2, §3, §4, §5, §6, §7"}, "[4]": {"details": "pH 7.4, 0.5 mg protein/mL, NADPH, 37° C."}, "[5]": {"details": "pH 7.4, in vivo CLint extrapolated"}},
  "data": [
    {"smiles": "Nc1cc(Oc2ccc(NC(=O)c3c4n(n(-c5ccccc5)c3=O)CCC4)cc2)ccn1", "note": "[Ex. 1, N-(4-((2-aminopyridin-4-yl)oxy)phenyl)-2-oxo-1-phenyl-2,4,5,6-tetrahydro-1H-pyrrolo[1,2-b]pyrazole-3-carboxamide]", "values": [
      {"measurement": "AUC(0-t)", "setting": "[1]; iv dosing, 1 mg/kg", "value": 1190, "unit": "ng·h/mL"},
      {"measurement": "half-life", "setting": "[1]; iv dosing, 1 mg/kg", "value": 1.51, "unit": "h"},
      {"measurement": "Vd", "setting": "[1]; iv dosing, 1 mg/kg, read-out: Vss", "value": 1.2, "unit": "L/kg"},
      {"measurement": "bioavailability", "setting": "[1]; po, bioavailability (F)", "value": 163, "unit": "%"},
      {"measurement": "half-life", "setting": "[2]; [4]", "value": 3.13, "unit": "h"},
      {"measurement": "CLint scaled", "setting": "[2]; [5]", "value": 9.27, "unit": "mL/min/kg"},
      {"measurement": "half-life", "setting": "[3]; [4]", "value": 1.48, "unit": "h"},
      {"measurement": "CLint scaled", "setting": "[3]; [5]", "value": 27.9, "unit": "mL/min/kg"}
    ]}
  ]
}
